# Source: patent publication US20080140450A1, “Treatment of metabolic syndrome with norfluoxetine” (AMPLA Pharmaceuticals Inc., priority 2006, published 2008)
# Columns and labels:
# [1] = tested on: monoamine uptake, especially serotonin; conditions: qualitative, known from U.S. Pat. No. 4,313,896; cited from earlier work
# [2] = molecular target: CB1 receptor (Homo sapiens, UniProt P21554); assay: functional activity versus the CB1 receptor; conditions: qualitative statement, no method or numbers given
# Sequence of CB1 receptor (P21554 whole entry): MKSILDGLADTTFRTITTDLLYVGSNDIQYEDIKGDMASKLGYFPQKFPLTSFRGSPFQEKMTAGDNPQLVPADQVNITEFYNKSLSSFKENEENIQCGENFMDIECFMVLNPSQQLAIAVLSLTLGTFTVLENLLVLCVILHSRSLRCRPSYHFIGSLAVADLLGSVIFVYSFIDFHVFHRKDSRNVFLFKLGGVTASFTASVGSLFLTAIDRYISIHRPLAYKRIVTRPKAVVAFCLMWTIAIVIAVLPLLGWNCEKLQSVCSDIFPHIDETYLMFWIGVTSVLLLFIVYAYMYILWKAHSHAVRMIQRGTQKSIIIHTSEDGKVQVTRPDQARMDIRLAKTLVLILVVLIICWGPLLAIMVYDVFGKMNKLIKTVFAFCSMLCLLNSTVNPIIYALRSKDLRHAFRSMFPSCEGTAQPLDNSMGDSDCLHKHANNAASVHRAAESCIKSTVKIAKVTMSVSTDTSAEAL
# Description: Without wishing to be restricted by the proposal, this cannabinoid activity may mediate the utility of these compounds for the treatment of metabolic syndrome or the disorders associated with metabolic syndrome.
Structure (SMILES),block of monoamine uptake [1],functional activity versus the CB1 receptor (mode of action) [2]
"NCCC(Oc1ccc(C(F)(F)F)cc1)c1ccccc1 (racemic) [Norfluoxetine, 3-(4-trifluoromethylphenoxy)-3-phenylpropylamine]","block monoamine uptake, especially serotonin",antagonist of CB1
CNCC[C@@H](Oc1ccc(C(F)(F)F)cc1)c1ccccc1 [(R)-fluoxetine],–,antagonist of CB1
CNCC[C@H](Oc1ccc(C(F)(F)F)cc1)c1ccccc1 [(S)-Fluoxetine],–,inverse agonist of CB1
